Results from article PMC11589101, “Profiling the endocrine-disrupting properties of triazines, triazoles, and short-chain PFAS” (Toxicological Sciences, 2024).
Like-named read-outs stand apart in the source and are kept apart here.

Columns and labels:
[1] = target: T1, human transthyretin (TTR) (Homo sapiens, UniProt P02766); assay: FITC-T4 TTR-binding assay, initial (original) method
Description: (§1) All incubations were performed at room temperature.
(§2) Fluorescence enhancement was determined for each well by subtracting its relative fluorescence units (RFU) before TTR addition from its RFUs after TTR addition. The resulting values were normalized to percentages of the vehicle control. A concentration–response curve was fitted through the data using the same model as in the reporter gene assays.
After 15 min of incubation, fluorescence was measured and fluorescence enhancement was calculated by subtracting RFU without TTR from RFU with TTR. Further data analysis was similar to the screening assays.

[2] = target: T1, human transthyretin (TTR); assay: FITC-T4 TTR-binding assay, screening method
Description: as §1
In the screening tests, 48 μl of Tris-HCl buffer (pH 8.0) was added to each well of black low-binding 96-well plates. Two microliters of each test compound dissolved in their respective solvent was added to each well and the plate was shaken at 600 rpm for 5 min. […] Fluorescence was measured again to check for possible autofluorescence or quenching by the test compound.
as §2

[3] = system: steroidogenesis in H295R cells; type: cell-based, human; conditions: for effect on steroid hormone levels compared with vehicle-treated controls: highest noncytotoxic exposure concentration, 48 h; for 11 deoxycorticosterone mean fold change / 17aOH progesterone mean fold change / 17b E2 mean fold change / E1 mean fold change / androstenedione mean fold change / corticosterone mean fold change / cortisol mean fold change / testosterone mean fold change: H295R
Description: All experiments were performed using cells in passages 5 to 10. First, the highest noncytotoxic concentration (<10% decrease in viability) was determined for each compound with MTT assays. Next, the levels of 13 steroid hormones were determined in the medium after exposure of the H295R cells to the highest noncytotoxic concentration using LC-MS/MS. These concentrations were tested in triplicate (n = 3) in 3 independent experiments (N = 3), and all 9 samples were measured in LC-MS/MS. […] These dilution series were tested in 3 independent experiments (N = 3), with triplicate exposures in each of these experiments (n = 3). Supernatants of the triplicate exposures per experiment were pooled after the 48 h of exposure and the 3 pooled samples were measured with LC-MS/MS. This was done to keep the number of LC-MS/MS measurements manageable.
The exposure medium was prepared by diluting stock solutions 1,000× in the cell culture medium to obtain a final concentration of 0.1% of the solvent. Exposure was started by replacing cell culture medium with the exposure medium. […] On a separate quality control plate, cells were exposed to 10 μM forskolin (Sigma-Aldrich) and 1 μM prochloraz (Sigma-Aldrich) to serve as positive control for increased and decreased steroid hormone secretion, respectively. Exposure was started by replacing the culture medium in the cell culture plates with the exposure medium.
After 48 h of exposure, the supernatant medium from each well was transferred to the wells of a clean 48-well plate, and that plate was stored at −80 °C for later steroid measurement. MTT assays were performed by adding 500 μl of 0.5 mg/ml MTT (3-(4,5-dimethylthiazol-2-yl)-2,5-diphenyltetrazolium bromide; Sigma-Aldrich) solution in medium to each well of the 24-well cell culture plate and incubating for 1 h at 37 °C with 5% CO2. After incubation, the MTT solution was discarded and 500 μl of DMSO was added to each well to lyse the cells and dissolve the formazan crystals. Plates were shaken at 700 rpm for 10 min and absorbance was measured at 560 nm wavelength.
Hormones were concentrated from supernatants by solid phase extraction using Bond Elut Plexa cartridges, 30 mg sorbent, 1.8 ml (Agilent Technologies, Santa Clara, CA, United States). The cartridges were conditioned with 1 ml of 0.5% formic acid in methanol, and subsequent addition of 1 ml of 0.5% formic acid in water. A mix of 100 μl of H295R medium sample in 1 ml of 2% formic acid in water and 50 μl of isotopically labeled internal standards mix (Table S1) was loaded on the cartridges. These were then washed with 1 ml of water followed by 1 ml of water–methanol mixture (70:30, v/v). Cartridges were dried by vacuum and the hormones were eluted with 700 μl of methanol into 96-well-deep well polypropylene plates. Eluates were evaporated to dryness during approximately 2 h in a refrigerated CentriVap vacuum concentrator and reconstituted in 150 μl of water–methanol mixture (1:1, v/v). Additionally, a serial 12-point dilution series of a mix of native steroid hormones was prepared to fit a calibration curve in order to quantify steroid concentrations.
The steroid hormones were separated prior to MS measurements on a Kinetex C18 LC Column (2.6 μm, 100 × 2.1 mm; Phenomenex, CA, United States) coupled to an Exion LC system (SCIEX, Framingham, MA, United States). The mobile phase consisted of 0.2 mM NH4F in water and pure methanol and was delivered at a flow rate of 0.6 ml/min in a gradient elution mode. The injection volume was 10 μl.
The LC-MS/MS raw data were processed using AB Sciex OS Analyst version 1.6.2 (SCIEX, Framingham, MA, United States) to calculate fold changes by dividing the measured hormone concentrations by the hormone concentrations in the vehicle controls. The fold changes were used to fit a concentration–response curve in GraphPad Prism using the same model as in the reporter gene assays, and the ECIR1.5 was estimated for each compound.

[4] = initial method, 110 nM FITC-T4, 30 nM TTR
[5] = initial method, 110 nM FITC-T4, 30 nM TTR, read-out: IC50 competing with FITC-T4 for binding to TTR
[6] = screening method, read-out: IC50 TTR-binding assay, Screening Method

Structure (SMILES): O=C(O)C(F)(F)C(F)(F)C(F)(F)C(F)(F)C(F)(F)F [PFHxA, Perfluorohexanoic acid]
- % FITCT4 bound to TTR ([1]; 0.1 uM): 90.7115%
- % FITCT4 bound to TTR ([1]; 0.3 uM): 81.4177%
- % FITCT4 bound to TTR ([1]; 1 uM): 77.1918%
- % FITCT4 bound to TTR ([1]; 3 uM): 44.5805%
- % FITCT4 bound to TTR ([1]; 10 uM): 21.8899%
- % FITCT4 bound to TTR ([1]; 30 uM): 12.6684%
- % FITCT4 bound to TTR ([1]; 100 uM): 2.971%
- IC10 competing with FITC-T4 for binding to TTR [1, 4]: 200 nM
- IC50 [1, 5]: 2600 nM
- IC50 [2, 6]: 2500 nM

Structure (SMILES): O=S(=O)(O)C(F)(F)C(F)(F)C(F)(F)C(F)(F)F [PFBS, Perfluorobutane sulfonic acid]
- % FITCT4 bound to TTR ([1]; 0.1 uM): 97.3072%
- % FITCT4 bound to TTR ([1]; 0.3 uM): 93.7406%
- % FITCT4 bound to TTR ([1]; 1 uM): 89.6282%
- % FITCT4 bound to TTR ([1]; 3 uM): 73.6529%
- % FITCT4 bound to TTR ([1]; 10 uM): 44.4619%
- % FITCT4 bound to TTR ([1]; 30 uM): 21.5802%
- % FITCT4 bound to TTR ([1]; 100 uM): 11.5263%
- IC10 competing with FITC-T4 for binding to TTR [1, 4]: 820 nM
- IC50 [1, 5]: 8300 nM
- IC50 [2, 6]: 8200 nM

Structure (SMILES): CC(C)Nc1nc(N)nc(Cl)n1 [Deethyl-atrazine]
- effect on steroid hormone levels compared with vehicle-treated controls [3]: increased levels of progestogens, androgens, estrogens, and corticosteroids

Structure (SMILES): O=C(O)C(F)(OC(F)(F)C(F)(F)C(F)(F)F)C(F)(F)F (stereo not drawn) [GenX, Hexafluoropropylene oxide dimer acid]
- % FITCT4 bound to TTR ([1]; 0.1 uM): 92.2482%
- % FITCT4 bound to TTR ([1]; 0.3 uM): 91.7718%
- % FITCT4 bound to TTR ([1]; 1 uM): 89.1133%
- % FITCT4 bound to TTR ([1]; 3 uM): 86.8896%
- % FITCT4 bound to TTR ([1]; 10 uM): 74.6529%
- % FITCT4 bound to TTR ([1]; 30 uM): 53.6966%
- % FITCT4 bound to TTR ([1]; 100 uM): 24.7329%
- IC10 competing with FITC-T4 for binding to TTR [1, 4]: 1900 nM
- IC50 [1, 5]: 31900 nM
- IC50 [2, 6]: 30300 nM

Structure (SMILES): CCNc1nc(Cl)nc(NC(C)C)n1 [Atrazine]
- 11 deoxycorticosterone mean fold change ([3]; concentration 0.3 uM): 1.225 fold change
- 17aOH progesterone mean fold change ([3]; concentration 0.3 uM): 1.062 fold change
- 17b E2 mean fold change ([3]; concentration 0.3 uM): 1.11 fold change
- E1 mean fold change ([3]; concentration 0.3 uM): 0.9324 fold change
- androstenedione mean fold change ([3]; concentration 0.3 uM): 1.124 fold change
- corticosterone mean fold change ([3]; concentration 0.3 uM): 1.264 fold change
- cortisol mean fold change ([3]; concentration 0.3 uM): 1.18 fold change
- testosterone mean fold change ([3]; concentration 0.3 uM): 1.092 fold change
- 11 deoxycorticosterone mean fold change ([3]; concentration 1 uM): 1.279 fold change
- 17aOH progesterone mean fold change ([3]; concentration 1 uM): 1.128 fold change
- 17b E2 mean fold change ([3]; concentration 1 uM): 1.2477 fold change
- E1 mean fold change ([3]; concentration 1 uM): 1.144 fold change
- androstenedione mean fold change ([3]; concentration 1 uM): 1.188 fold change
- corticosterone mean fold change ([3]; concentration 1 uM): 1.609 fold change
- cortisol mean fold change ([3]; concentration 1 uM): 1.21 fold change
- testosterone mean fold change ([3]; concentration 1 uM): 1.129 fold change
- 11 deoxycorticosterone mean fold change ([3]; concentration 3 uM): 1.291 fold change
- 17aOH progesterone mean fold change ([3]; concentration 3 uM): 1.151 fold change
- 17b E2 mean fold change ([3]; concentration 3 uM): 1.487 fold change
- E1 mean fold change ([3]; concentration 3 uM): 1.415 fold change
- androstenedione mean fold change ([3]; concentration 3 uM): 1.193 fold change
- corticosterone mean fold change ([3]; concentration 3 uM): 1.535 fold change
- cortisol mean fold change ([3]; concentration 3 uM): 1.258 fold change
- testosterone mean fold change ([3]; concentration 3 uM): 1.198 fold change
- 11 deoxycorticosterone mean fold change ([3]; concentration 10 uM): 1.493 fold change
- 17aOH progesterone mean fold change ([3]; concentration 10 uM): 1.43 fold change
- 17b E2 mean fold change ([3]; concentration 10 uM): 2.183 fold change
- E1 mean fold change ([3]; concentration 10 uM): 2.232 fold change
- androstenedione mean fold change ([3]; concentration 10 uM): 1.47 fold change
- corticosterone mean fold change ([3]; concentration 10 uM): 2.296 fold change
- cortisol mean fold change ([3]; concentration 10 uM): 1.583 fold change
- testosterone mean fold change ([3]; concentration 10 uM): 1.47 fold change
- 11 deoxycorticosterone mean fold change ([3]; concentration 30 uM): 1.712 fold change
- 17aOH progesterone mean fold change ([3]; concentration 30 uM): 1.877 fold change
- 17b E2 mean fold change ([3]; concentration 30 uM): 2.732 fold change
- E1 mean fold change ([3]; concentration 30 uM): 3.048 fold change
- androstenedione mean fold change ([3]; concentration 30 uM): 1.542 fold change
- corticosterone mean fold change ([3]; concentration 30 uM): 2.489 fold change
- cortisol mean fold change ([3]; concentration 30 uM): 1.7 fold change
- testosterone mean fold change ([3]; concentration 30 uM): 1.645 fold change
- 11 deoxycorticosterone mean fold change ([3]; concentration 100 uM): 2.107 fold change
- 17aOH progesterone mean fold change ([3]; concentration 100 uM): 2.139 fold change
- 17b E2 mean fold change ([3]; concentration 100 uM): 2.968 fold change
- E1 mean fold change ([3]; concentration 100 uM): 3.994 fold change
- androstenedione mean fold change ([3]; concentration 100 uM): 1.612 fold change
- corticosterone mean fold change ([3]; concentration 100 uM): 3.324 fold change
- cortisol mean fold change ([3]; concentration 100 uM): 2.203 fold change
- testosterone mean fold change ([3]; concentration 100 uM): 1.74 fold change
- effect on steroid hormone levels compared with vehicle-treated controls [3]: increased levels of progestogens, androgens, estrogens, and corticosteroids

Structure (SMILES): O=S(=O)(O)C(F)(F)C(F)(F)C(F)(F)C(F)(F)C(F)(F)C(F)(F)F [PFHxS, Perfluorohexane sulfonic acid]
- IC50 [1]: 270 nM
- % FITCT4 bound to TTR ([1]; 0.1 uM): 74.2951%
- % FITCT4 bound to TTR ([1]; 0.3 uM): 47.4669%
- % FITCT4 bound to TTR ([1]; 1 uM): 17.2866%
- % FITCT4 bound to TTR ([1]; 3 uM): 8.444%
- % FITCT4 bound to TTR ([1]; 10 uM): 4.647%
- % FITCT4 bound to TTR ([1]; 30 uM): 2.41%
- % FITCT4 bound to TTR ([1]; 100 uM): 0.6647%
- IC10 competing with FITC-T4 for binding to TTR [1, 4]: 34 nM
- IC50 [2]: 240 nM
